# Laboratory results published in patent publication US8029832B2, “Obesity and metabolic syndrome treatment with tanshinone derivatives which increase metabolic activity” (priority 2003, dated 2011).
# Legend:
# AMPK = AMPK activity of double or triple combinations of tanshinone derivatives in muscle cells; format: cell-based; conditions: combinations of the four tanshinone derivatives
# Description: Using muscle cells, this example was carried out to confirm synergistic effects of AMPK activity with respect to the combination ratio between derivatives, which contained tanshinone I, tanshinone IIA, cryptotanshinone and 15,16-dihydrotanshinone I, as main ingredients. That is, we have attempted to confirm inter-complementary functions between derivatives according to gene expression as shown in Example 5 and thereby synergistic effects by any combination of tanshinone derivatives through AMPK activity.
# The respective ingredients of tanshinone I, tanshinone IIA, cryptotanshinone and 15,16-dihydrotanshinone I were doubly or triply combined to prepare different compositions. AMPK activity of the prepared compositions and the AMPK activity of respective ingredients included in those compositions were compared to confirm synergistic effects. In addition, we have attempted to confirm AMPK activity with respect to changes in the combination ratio by varying the ratio between ingredients in the compositions, and to obtain synergistic effects of activity by any combination of tanshinone derivatives.
# hepatocytes = conditions: Planta Med. 2002, 68, 1077-1081; cited from earlier work
# cardiac myocytes [1] = conditions: Planta Med. 2002, 68, 1103-1107; cited from earlier work
# cardiac fibroblasts = conditions: Planta Med. 2002, 68, 1103-1107; cited from earlier work
# mitochondria = conditions: Biochemical Pharmacology 65, 51-57, 2003; cited from earlier work
# cardiac myocytes [2] = conditions: Biochemical Pharmacology 64, 745-750 (2002); cited from earlier work
compound,measurement,setting,value
tanshinone I,enhancement effect on AMPK activity by combinational use of two or more of these compounds,AMPK,significantly increased
Cc1cccc2c3c(ccc12)C(=O)C1=C(OCC1C)C3=O (stereo not drawn) [dihydroisotanshinone I],effect against menadione-induced cytotoxicity in hepatocytes,hepatocytes,hepatoprotective effects
Cc1cccc2c3c(ccc12)C(O)=C(C(C)CO)C(=O)C3=O (stereo not drawn) [tanshinone VI],hypertrophy of cardiac myocytes,cardiac myocytes [1],attenuates hypertrophy of cardiac myocytes
same,synthesis of collagen by cardiac fibroblasts,cardiac fibroblasts,inhibits synthesis of collagen by cardiac fibroblasts
C[C@H]1COC2=C1C(=O)C(=O)c1c2ccc2c1CCCC2(C)C [cryptotanshinone],enhancement effect on AMPK activity by combinational use of two or more of these compounds,AMPK,significantly increased
Cc1c(S(=O)(=O)O)oc2c1C(=O)C(=O)c1c-2ccc2c1CCCC2(C)C [tanshinone IIA sulfonate],electron-transfer reaction in mitochondria,mitochondria,facilitates an electron-transfer reaction in mitochondria
same,hypertrophy of cardiac myocytes induced by angiotensin II,cardiac myocytes [2],attenuates hypertrophy of cardiac myocytes induced by angiotensin II
"15,16-Dihydrotanshinone I",enhancement effect on AMPK activity by combinational use of two or more of these compounds,AMPK,significantly increased
Cc1coc2c1C(=O)C(=O)c1c-2ccc2c1CCCC2(C)C [tanshinone IIA],enhancement effect on AMPK activity by combinational use of two or more of these compounds,AMPK,significantly increased
